BindingDB's records for doi:10.1016/j.bmcl.2007.07.021 (Boehringer Ingelheim Pharmaceuticals, 2007)
pIC50: −log10 of the molar value.

Molecular target: T1, Mineralocorticoid receptor (Homo sapiens, UniProt P08235)
T1 sequence (P08235 whole entry): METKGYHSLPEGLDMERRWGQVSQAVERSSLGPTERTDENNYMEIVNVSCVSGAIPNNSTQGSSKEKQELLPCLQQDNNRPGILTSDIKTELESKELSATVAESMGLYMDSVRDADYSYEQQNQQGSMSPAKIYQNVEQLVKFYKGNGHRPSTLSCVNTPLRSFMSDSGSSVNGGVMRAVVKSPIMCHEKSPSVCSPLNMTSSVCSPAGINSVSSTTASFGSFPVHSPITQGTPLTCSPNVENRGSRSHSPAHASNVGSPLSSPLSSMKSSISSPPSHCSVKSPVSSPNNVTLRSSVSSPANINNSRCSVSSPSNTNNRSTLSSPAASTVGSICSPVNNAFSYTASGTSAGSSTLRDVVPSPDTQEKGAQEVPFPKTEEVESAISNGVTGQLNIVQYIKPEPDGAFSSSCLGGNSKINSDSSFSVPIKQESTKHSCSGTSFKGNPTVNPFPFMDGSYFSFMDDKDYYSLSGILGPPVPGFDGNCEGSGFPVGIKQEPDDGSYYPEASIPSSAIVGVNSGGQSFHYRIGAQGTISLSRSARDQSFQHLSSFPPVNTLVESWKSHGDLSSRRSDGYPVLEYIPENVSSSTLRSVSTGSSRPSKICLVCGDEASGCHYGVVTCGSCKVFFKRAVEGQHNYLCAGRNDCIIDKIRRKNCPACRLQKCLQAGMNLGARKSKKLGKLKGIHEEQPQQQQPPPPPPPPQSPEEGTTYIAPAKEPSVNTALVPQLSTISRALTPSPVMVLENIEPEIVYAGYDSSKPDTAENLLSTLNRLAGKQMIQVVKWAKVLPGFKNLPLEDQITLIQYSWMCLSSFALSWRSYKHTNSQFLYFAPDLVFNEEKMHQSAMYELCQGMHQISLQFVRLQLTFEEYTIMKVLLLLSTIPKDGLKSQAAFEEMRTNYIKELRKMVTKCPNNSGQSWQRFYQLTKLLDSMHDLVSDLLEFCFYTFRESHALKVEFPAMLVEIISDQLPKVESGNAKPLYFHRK
Assay: Fluorescence Polarization Competitive Binding Assay.
Description: IC50 values shown are means of a single experiment done in duplicate 11-point concentration-effect curves.

Structure (SMILES): C=CCOC(C)C1=CC(C)(C)Nc2ccc(-c3ccccc3OC)cc21 (stereo unspecified) [6-(2-methoxyphenyl)-2,2-dimethyl-4-[1-(prop-2-en-1-yloxy)ethyl]-1,2-dihydroquinoline]
- pIC50: 6.01
